Measurements reported in the supplement of paper PMC10307832.

Experiments:
Experiment in all cases: relative viability (nuclei count vs DMSO), 5 days (fraction); higher = more cells survive
HARA = test system: HARA
In short: (§1)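 Relative viability divides the nuclei count in treated wells by that in vehicle wells. Lung cancer cell lines were seeded in 1536-well plates, dosed by pin tool the next day, and fixed and stained after 5 days in one step with final 0.05% Triton X-100, 1% formaldehyde and 1 ug/ml Hoechst. Dosing was a single drug or a fixed anchor-drug dose plus five library-drug doses (not always all listed) in √10 steps, and values are medians of duplicate plates imaged at 4×.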

HCC-827 = test system: HCC-827
In short: as §1

PC-3 [JPC-3] = test system: PC-3 [JPC-3]
In short: as §1

HCC-44 = test system: HCC-44
In short: as §1

NCI-H2087 = test system: NCI-H2087
In short: as §1

COR-L 105 = test system: COR-L 105
In short: as §1

LCLC-97TM1 = test system: LCLC-97TM1
In short: as §1

CAL-12T = test system: CAL-12T
In short: as §1

LU99A = test system: LU99A
In short: as §1

NCI-H1993 = test system: NCI-H1993
In short: as §1

LXF-289 = test system: LXF-289
In short: as §1

BEN = test system: BEN
In short: as §1

NCI-H2126 = test system: NCI-H2126
In short: as §1

HOP-62 = test system: HOP-62
In short: as §1

NCI-H727 = test system: NCI-H727
In short: as §1

HCC-366 = test system: HCC-366
In short: as §1

LC-2-ad = test system: LC-2-ad
In short: as §1

SK-MES-1 = test system: SK-MES-1
In short: as §1

HCC-15 = test system: HCC-15
In short: as §1

COR-L23 = test system: COR-L23
In short: as §1

NCI-H2009 = test system: NCI-H2009
In short: as §1

NCI-H2170 = test system: NCI-H2170
In short: as §1

PC-14 = test system: PC-14
In short: as §1

O=C(O)CCCCC(CCSCc1ccccc1)SCc1ccccc1 (centres undefined) [CPI-613] + CC(=O)Nc1cccc(-n2c(=O)n(C3CC3)c(=O)c3c(Nc4ccc(I)cc4F)n(C)c(=O)c(C)c32)c1 [Trametinib] (partner 0.02 µM)
relative viability (HARA; first compound 5 µM): 0.805
relative viability (HARA; first compound 15.81 µM): 0.57
relative viability (HARA; first compound 50 µM): 0.849
relative viability (HARA; first compound 158.11 µM): 0.362
relative viability (HARA; first compound 500 µM): 0.0485
relative viability (HCC-827; first compound 5 µM): 0.518
relative viability (HCC-827; first compound 15.81 µM): 0.555
relative viability (HCC-827; first compound 50 µM): 0.571
relative viability (HCC-827; first compound 158.11 µM): 0.518
relative viability (HCC-827; first compound 500 µM): 0.483
relative viability (PC-3 [JPC-3]; first compound 5 µM): 0.659
relative viability (PC-3 [JPC-3]; first compound 50 µM): 0.712
relative viability (PC-3 [JPC-3]; first compound 158.11 µM): 0.321
relative viability (PC-3 [JPC-3]; first compound 500 µM): 0.433
relative viability (HCC-44; first compound 5 µM): 1.04
relative viability (HCC-44; first compound 15.81 µM): 1.03
relative viability (HCC-44; first compound 50 µM): 1.08
relative viability (HCC-44; first compound 158.11 µM): 0.649
relative viability (HCC-44; first compound 500 µM): 0.62
relative viability (NCI-H2087; first compound 5 µM): 0.207
relative viability (NCI-H2087; first compound 15.81 µM): 0.16
relative viability (NCI-H2087; first compound 50 µM): 0.159
relative viability (NCI-H2087; first compound 158.11 µM): 0.0653
relative viability (NCI-H2087; first compound 500 µM): 0.003
relative viability (COR-L 105; first compound 5 µM): 0.459
relative viability (COR-L 105; first compound 15.81 µM): 0.437
relative viability (COR-L 105; first compound 50 µM): 0.479
relative viability (COR-L 105; first compound 158.11 µM): 0.355
relative viability (COR-L 105; first compound 500 µM): 0.225
relative viability (LCLC-97TM1; first compound 5 µM): 0.202
relative viability (LCLC-97TM1; first compound 15.81 µM): 0.162
relative viability (LCLC-97TM1; first compound 50 µM): 0.153
relative viability (LCLC-97TM1; first compound 158.11 µM): 0.0713
relative viability (LCLC-97TM1; first compound 500 µM): 0.0622
relative viability (CAL-12T; first compound 5 µM): 0.286
relative viability (CAL-12T; first compound 15.81 µM): 0.309
relative viability (CAL-12T; first compound 50 µM): 0.325
relative viability (CAL-12T; first compound 158.11 µM): 0.0954
relative viability (CAL-12T; first compound 500 µM): 0.038
relative viability (LU99A; first compound 5 µM): 0.51
relative viability (LU99A; first compound 15.81 µM): 0.524
relative viability (LU99A; first compound 50 µM): 0.461
relative viability (LU99A; first compound 158.11 µM): 0.338
relative viability (LU99A; first compound 500 µM): 0.357
relative viability (NCI-H1993; first compound 5 µM): 0.466
relative viability (NCI-H1993; first compound 15.81 µM): 0.456
relative viability (NCI-H1993; first compound 50 µM): 0.528
relative viability (NCI-H1993; first compound 158.11 µM): 0.51
relative viability (NCI-H1993; first compound 500 µM): 0.291
relative viability (LXF-289; first compound 5 µM): 0.653
relative viability (LXF-289; first compound 15.81 µM): 0.659
relative viability (LXF-289; first compound 50 µM): 0.665
relative viability (LXF-289; first compound 158.11 µM): 0.446
relative viability (LXF-289; first compound 500 µM): 0.572
relative viability (BEN; first compound 5 µM): 1.14
relative viability (BEN; first compound 15.81 µM): 0.976
relative viability (BEN; first compound 50 µM): 0.958
relative viability (BEN; first compound 158.11 µM): 0.804
relative viability (BEN; first compound 500 µM): 0.905
relative viability (NCI-H2126; first compound 5 µM): 0.528
relative viability (NCI-H2126; first compound 15.81 µM): 0.538
relative viability (NCI-H2126; first compound 50 µM): 0.615
relative viability (NCI-H2126; first compound 158.11 µM): 0.232
relative viability (NCI-H2126; first compound 500 µM): 0.193
relative viability (HOP-62; first compound 5 µM): 0.394
relative viability (HOP-62; first compound 15.81 µM): 0.402
relative viability (HOP-62; first compound 50 µM): 0.351
relative viability (HOP-62; first compound 158.11 µM): 0.267
relative viability (HOP-62; first compound 500 µM): 0.129
relative viability (NCI-H727; first compound 5 µM): 0.393
relative viability (NCI-H727; first compound 15.81 µM): 0.389
relative viability (NCI-H727; first compound 50 µM): 0.396
relative viability (NCI-H727; first compound 158.11 µM): 0.374
relative viability (NCI-H727; first compound 500 µM): 0.339
relative viability (HCC-366; first compound 5 µM): 0.367
relative viability (HCC-366; first compound 15.81 µM): 0.321
relative viability (HCC-366; first compound 50 µM): 0.29
relative viability (HCC-366; first compound 158.11 µM): 0.12
relative viability (HCC-366; first compound 500 µM): 0.0064
relative viability (LC-2-ad; first compound 5 µM): 0.857
relative viability (LC-2-ad; first compound 15.81 µM): 0.899
relative viability (LC-2-ad; first compound 50 µM): 0.911
relative viability (LC-2-ad; first compound 158.11 µM): 0.695
relative viability (LC-2-ad; first compound 500 µM): 0.0212
relative viability (SK-MES-1; first compound 5 µM): 0.534
relative viability (SK-MES-1; first compound 15.81 µM): 0.49
relative viability (SK-MES-1; first compound 50 µM): 0.523
relative viability (SK-MES-1; first compound 158.11 µM): 0.201
relative viability (SK-MES-1; first compound 500 µM): 0.132
relative viability (HCC-15; first compound 5 µM): 0.387
relative viability (HCC-15; first compound 15.81 µM): 0.363
relative viability (HCC-15; first compound 50 µM): 0.363
relative viability (HCC-15; first compound 158.11 µM): 0.167
relative viability (HCC-15; first compound 500 µM): 0.0261
relative viability (COR-L23; first compound 5 µM): 0.651
relative viability (COR-L23; first compound 15.81 µM): 0.524
relative viability (COR-L23; first compound 50 µM): 0.63
relative viability (COR-L23; first compound 158.11 µM): 0.198
relative viability (COR-L23; first compound 500 µM): 0.0522
relative viability (NCI-H2009; first compound 5 µM): 0.319
relative viability (NCI-H2009; first compound 15.81 µM): 0.257
relative viability (NCI-H2009; first compound 50 µM): 0.302
relative viability (NCI-H2009; first compound 158.11 µM): 0.081
relative viability (NCI-H2009; first compound 500 µM): 0.027
relative viability (NCI-H2170; first compound 5 µM): 0.95
relative viability (NCI-H2170; first compound 15.81 µM): 0.968
relative viability (NCI-H2170; first compound 50 µM): 0.892
relative viability (NCI-H2170; first compound 158.11 µM): 0.686
relative viability (NCI-H2170; first compound 500 µM): 0.546
relative viability (PC-14; first compound 5 µM): 0.651
relative viability (PC-14; first compound 15.81 µM): 0.549
relative viability (PC-14; first compound 50 µM): 0.72
relative viability (PC-14; first compound 158.11 µM): 0.108
relative viability (PC-14; first compound 500 µM): 0.0098
